Reference: US8754242B2, “Herbicides” (Syngenta Crop Protection LLC, priority 2007, dated 2014)

What was measured:
Format in all cases: in vivo
[1] = tested on: Digitaria sanguinalis (DIGSA); experiment: Test Example 1 pre-emergence herbicidal activity; conditions: Digitaria sanguinalis, 480 h, rate 250 g/ha, evaluated 20 days later, read-out: Pre-emergence activity DIGSA (100=total damage to plant; 0=no damage to plant)
Procedure, shortened: (§1)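 Once sown in standard soil, pots received an aqueous spray of the formulated active ingredient, either after one day or after ten days of controlled glasshouse growth. Plants then grew under optimum greenhouse conditions. Herbicidal effect was assessed visually 15 (post-emergence) or 20 (pre-emergence) days later, 100 meaning total plant damage.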

[2] = tested on: Lolium perenne (LOLPE); experiment: Test Example 1 pre-emergence herbicidal activity; conditions: Lolium perenne, 480 h, rate 250 g/ha, evaluated 20 days later, read-out: Pre-emergence activity LOLPE (100=total damage to plant; 0=no damage to plant)
Procedure, shortened: as §1

[3] = tested on: Avena fatua (AVEFA); experiment: Test Example 1 pre-emergence herbicidal activity; conditions: Avena fatua, 480 h, rate 250 g/ha, evaluated 20 days later, read-out: Pre-emergence activity AVEFA (100=total damage to plant; 0=no damage to plant)
Procedure, shortened: as §1

[4] = tested on: Echinochloa crus-galli (ECHCG); experiment: Test Example 1 pre-emergence herbicidal activity; conditions: Echinochloa crus-galli, 480 h, rate 250 g/ha, evaluated 20 days later, read-out: Pre-emergence activity ECHCG (100=total damage to plant; 0=no damage to plant)
Procedure, shortened: as §1

[5] = tested on: Alopecurus myosuroides (ALOMY); experiment: Test Example 1 pre-emergence herbicidal activity; conditions: Alopecurus myosuroides, 480 h, rate 250 g/ha, evaluated 20 days later, read-out: Pre-emergence activity ALOMY (100=total damage to plant; 0=no damage to plant)
Procedure, shortened: as §1

[6] = tested on: Setaria faberi (SETFA); experiment: Test Example 1 pre-emergence herbicidal activity; conditions: Setaria faberi, 480 h, rate 250 g/ha, evaluated 20 days later, read-out: Pre-emergence activity SETFA (100=total damage to plant; 0=no damage to plant)
Procedure, shortened: as §1

[7] = tested on: Digitaria sanguinalis (DIGSA); experiment: Test Example 1 post-emergence herbicidal activity; conditions: 360 h, rate 125 g/ha, evaluated 15 days later, read-out: Post-emergence activity DIGSA (100=total damage to plant; 0=no damage to plant)
Procedure, shortened: as §1

[8] = tested on: Lolium perenne (LOLPE); experiment: Test Example 1 post-emergence herbicidal activity; conditions: 360 h, rate 125 g/ha, evaluated 15 days later, read-out: Post-emergence activity LOLPE (100=total damage to plant; 0=no damage to plant)
Procedure, shortened: as §1

[9] = tested on: Avena fatua (AVEFA); experiment: Test Example 1 post-emergence herbicidal activity; conditions: 360 h, rate 125 g/ha, evaluated 15 days later, read-out: Post-emergence activity AVEFA (100=total damage to plant; 0=no damage to plant)
Procedure, shortened: as §1

[10] = tested on: Echinochloa crus-galli (ECHCG); experiment: Test Example 1 post-emergence herbicidal activity; conditions: 360 h, rate 125 g/ha, evaluated 15 days later, read-out: Post-emergence activity ECHCG (100=total damage to plant; 0=no damage to plant)
Procedure, shortened: as §1

[11] = tested on: Alopecurus myosuroides (ALOMY); experiment: Test Example 1 post-emergence herbicidal activity; conditions: 360 h, rate 125 g/ha, evaluated 15 days later, read-out: Post-emergence activity ALOMY (100=total damage to plant; 0=no damage to plant)
Procedure, shortened: as §1

[12] = tested on: Setaria faberi (SETFA); experiment: Test Example 1 post-emergence herbicidal activity; conditions: 360 h, rate 125 g/ha, evaluated 15 days later, read-out: Post-emergence activity SETFA (100=total damage to plant; 0=no damage to plant)
Procedure, shortened: as §1

Row | Compound | pest or weed control at 250 g/ha [1] [%] | pest or weed control at 250 g/ha [2] [%] | pest or weed control at 250 g/ha [3] [%] | pest or weed control at 250 g/ha [4] [%] | pest or weed control at 250 g/ha [5] [%] | pest or weed control at 250 g/ha [6] [%] | pest or weed control at 125 g/ha [7] [%] | pest or weed control at 125 g/ha [8] [%] | pest or weed control at 125 g/ha [9] [%] | pest or weed control at 125 g/ha [10] [%] | pest or weed control at 125 g/ha [11] [%] | pest or weed control at 125 g/ha [12] [%]
1 | CCc1cc(C)cc(CC)c1C1=C(O)[C@@H]2[C@@H]3O[C@@H](C[C@H]3c3cc(F)cc(F)c3)[C@@H]2C1=O [Example T173] | 70 | 100 | 70 | 70 | 90 | 60 | 70 | 90 | 90 | 100 | 100 | 90
2 | CCc1cc(C)cc(CC)c1C1=C(O)[C@@H]2[C@@H]3O[C@@H](C[C@H]3c3ccccc3[N+](=O)[O-])[C@@H]2C1=O [Example T177] | 10 | 70 | 50 | 70 | 60 | 50 | 30 | 30 | 70 | 80 | 80 | 20
3 | CCc1cc(C)cc(CC)c1C1=C(O)[C@@H]2[C@@H]3O[C@@H](C[C@H]3c3cccc(C)c3)[C@@H]2C1=O [Example T179] | 60 | 80 | 60 | 70 | 70 | 10 | 50 | 80 | 80 | 70 | 80 | 10
4 | CCc1cc(C)cc(CC)c1C1=C(O)[C@@H]2[C@@H]3O[C@@H](C[C@H]3c3cccc(C#N)c3)[C@@H]2C1=O [Example T182] | 80 | 40 | 50 | 90 | 30 | 50 | 100 | 80 | 90 | 100 | 100 | 100
5 | CCc1cc(C)cc(CC)c1C1=C(O)[C@@H]2[C@@H]3O[C@@H](C[C@H]3c3ccc(F)cc3)[C@@H]2C1=O [Example T185] | 80 | 100 | 80 | 80 | 80 | 80 | 100 | 80 | 80 | 100 | 90 | 100
6 | Cc1cc(C)c(C2=C(O)[C@@H]3[C@@H]4O[C@@H](C[C@H]4c4cnccn4)[C@@H]3C2=O)c(C)c1 [Example T187] | 20 | 60 | 20 | 10 | 10 | 40 | 60 | 40 | 10 | 70 | 70 | 60
7 | Cc1cc(C)c(C2=C(O)[C@@H]3[C@@H]4O[C@@H](C[C@H]4c4cnc5ccccc5n4)[C@@H]3C2=O)c(C)c1 [Example T188] | 100 | 50 | 0 | 60 | 40 | 70 | 100 | 30 | 70 | 100 | 80 | 70
